# Test results reported in patent US7635693B2, “Methods for preventing and treating cancer using N-thiolated β-lactam compounds and analogs thereof” (University of South Florida, priority 2002, dated 2009).
# Read-outs that look alike come from different tables or passages of the source.
# Assays:
# MCF-7 cells = experiment: MTT assay, MCF-7; format: cell-based, human; details: MCF-7, 50 μM, 24 hours
# Procedure: MCF-7, MDA-MB-231, PC-3 and PCI-13 cells were grown to 50% confluency in a 24 well plate. […] A stock 5 mg/ml of MTT in serum-free media was then added to the cell cultures at a final concentration of 1 mg/ml, followed by a 3 hour incubation at 37° C. After cells crystallized, the media was removed and DMSO added to dissolve the metabolized MTT product. The absorbance was then measured on a Wallac Victor 1420 Multilabel counter at […].
# p38 MAP kinase = experiment: p38 phosphorylation, Western blot, Jurkat T cells; format: cell-based, human
# Description: It has been shown that multiple stimuli including DNA damaging agents induce apoptosis via activation of p38 MAP kinase (Kummer J L, et al., 1997, Apoptosis induced by withdrawal of trophic factors is mediated by p38 mitogen-activated protein kinase. J. Biol Chem 272:20490-4; Sanchez-Prieto R, et al., 2000, A role for the p38 mitogen-acitvated protein kinase pathway in the transcriptional activation of p53 on genotoxic stress by chemotherapeutic agents. Cancer Res 60:2464-72). […] The levels of Tyr-182 phosphorylated p38 protein were increased by 3-fold at 2 h and reached its maximum (˜9-fold) by 6 h (FIG. 8A). In has been shown that dual phosphorylation of p38 on Tyr-182 and Thr-180 activates this kinase (Raingeaud J, et al., 1995, Pro-inflammatory cytokines and environmental stress cause p38 mitogen-activated protein kinase activation by dual phosphorylation on tyrosine and threonine. J Biol Chem 270:7420-6). […] Therefore, lactam 1-induced DNA damage triggered activation of p38 before S population accumulation and apoptosis induction.
# cytochrome C = details: Jurkat T cells, 50 μM, 2 to 4 hours
# Procedure: At each time point, cells were washed twice with PBS, resuspended in a hypotonic buffer containing 20 mM HEPES (pH 7.5), 1.5 mM MgCl2, 5 mM KCl and 1 mM DTT, and incubated on ice for 10 min. The cells are dounced 30 times, and the lysate is centrifuged at 2,000×g for 10 min. The supernatant is collected and centrifuged again at the same condition. The resulting supernatant is then centrifuged at 20,500×g for 30 min, followed by collection of both the supernatant (cytosol) and pellet fractions. The pellet is washed twice with a buffer containing 210 mM mannitol, 70 mM sucrose, 5 mM Tris-HCl (pH 7.5) and 1 mM EDTA, and resuspended in the lysis buffer as the mitochondria fraction.
# caspase-8 = details: Jurkat T cells; for increase of caspase-8 levels over untreated cells: 8 hours
# Procedure: (§1) J. Biol Chem 276:13322-30 with some modifications. Briefly, a prepared protein extract (20 μg) is incubated in a buffer containing 50 mM Tris/pH 8.0 along with each respective caspase substrate at 20 μM in a 96 well plate. The reaction mixture is incubated at 37° C. for 2 h. After incubation, the liberated fluorescent AMC or AFC groups are measured by a Wallac Victor 1420 Multilabel counter (Turku, Finland) with 355/460 […] and 405/535 nm filters, respectively.
# caspase-9 = details: Jurkat T cells
# Procedure: as §1
# NK cells (YT line) = details: YT cells, 30 μM, 24 h
# Procedure: The trypan blue dye exclusion assay was performed by mixing 20 μl of cell suspension with 20 μl of 0.4% trypan blue dye before injecting into a hemocytometer and counting. The number of cells that absorbed the dye and those that exclude the dye were counted, from which the percentage of nonviable cell number to total cell number was calculated.
# Jurkat T cells = experiment: Flow cytometry cell cycle distribution and sub-G1 population, Jurkat T cells; format: cell-based, human; details: 50 μM
# Procedure: Cell Death Differ 5:1062-75. At each time point, cells are harvested, counted, and washed twice with PBS. Cells (5×10^6) are suspended in 0.5 ml PBS, fixed in 5 ml of 70% ethanol for at least 2 h at −20° C., centrifuged, resuspended again in 1 ml of propidium iodide staining solution (50 μg propidium iodide, 100 units RNase A and 1 mg glucose per ml PBS), and incubated at room temperature for 30 minutes. The cells are then analyzed with FACScan (Becton Dickinson Immunocytometry, CA), ModFit LT and WinMDI V.2.8 cell cycle analysis software (Verity Software; Topsham, Me.). The cell cycle distribution is shown as the percentage of cells containing G1, S, G2, and M DNA judged by propidium iodide staining. The apoptotic population is determined as the percentage of cells with sub-G1 (<G1) DNA content.
# VA-13 cells = details: detached VA-13 cells, 50 μM
# Procedure: (§2) (FIG. 19A) MTT assay. (FIG. 19B) Cell-free caspase-9 activity assay. A protein extract (20 μg) is incubated with 20 μM Ac-LEHD-AFC (the specific caspase-9 substrate) in a 96-well plate at 37° C. for 2 h. After incubation, the liberated florescent AFC groups are measured by Wallac Victor 1420 Multilabel counter with 405/535 nm filters. […] Both intact and active forms of caspase-3 are indicated. […] Both detached and attached populations of Va-13 or WI-38 cells are collected, and used for nuclear staining assay with DNA staining dye Hoechst 33342.
# (§3) To assay nuclear morphology, both the detached or remaining attached solid tumor cells were washed with PBS, fixed with 70% ethanol for 1 hour, and stained with Hoechst 33342 (50 μM) for 30 minutes. The nuclear morphology of cells was visualized by a fluorescence microscope.
# WI-38 cells = details: 50 μM
# Procedure: as §2, §3
# BID = details: Jurkat T cells, 50 μM
# Procedure: Human Jurkat T cells were cultured in RPMI 1640, supplemented with 10% fetal calf serum, 100 units/ml of penicillin and 100 μg/ml of streptomycin. Human breast cancer MCF-7 and MDA-MB-231 cells, human prostate cancer PC-3 cells, and human head-and-neck cancer PCI-13 cells were grown in Dulbecco's modified Eagle's medium containing 10% fetal calf serum, penicillin and streptomycin. All the cell lines were maintained in a 5% CO2 atmosphere at 37° C. A whole cell extract was prepared as described previously (An et al., 1998). Briefly, cells are harvested, washed with PBS and homogenized in a lysis buffer (50 mM Tris-HCl, pH 8.0, 5 mM EDTA, 150 mM NaCl, 0.5% NP-40, 0.5 mM PMSF, and 0.5 mM dithiothreitol) for 30 min at 4° C. After that, the lysates are centrifuged at 14,000×g for 30 min and the supernatants are collected as whole cell extracts. Equal amounts of protein extract (50 μg) are resolved by SDS-polyacrylamide gel electrophoresis and then transferred to a nitrocellulose membrane (Schleicher & Schuell, Keene, N H) using a Semi-Dry Transfer System (BIO-RAD; Hercules, Calif.). The enhanced chemiluminescence (ECL) Western Blot analysis is then performed using specific antibodies to the proteins of interest.
compound,measurement,setting,value
COC1C(=O)N(SC)C1c1ccccc1Cl (racemic) [lactam 1],decrease of cellular viability (MTT),MCF-7 cells,80%
same,increase of Tyr-182 phosphorylated p38 protein,"p38 MAP kinase; 50 μM, 2 h",3 fold
same,increase of Tyr-182 phosphorylated p38 protein (maximum),"p38 MAP kinase; 50 μM, 6 h",~9 fold
same,levels of total p38 protein,"p38 MAP kinase; 50 μM, up to 12 hours",remained relatively unchanged
same,normalized increase in phosphorylation of p38 over control,p38 MAP kinase; FIG. 8D,5.9 fold
same,levels of cytosolic cytochrome C,cytochrome C,significantly increased
same,levels of mitochondrial cytochrome C,cytochrome C,decreased
same,time at which caspase-8 activity was detected,caspase-8; 50 μM,2 h
same,time of maximal caspase-8 activity,caspase-8; 50 μM,6 h
same,increase of caspase-8 levels over untreated cells,caspase-8; 50 μM,5 fold
same,increase of caspase-8 levels over untreated cells,caspase-8; 30 to 40 μM,2 fold
same,time at which caspase-9 activity is first detected,caspase-9; 50 μM,4 h
same,caspase-9 activity,"caspase-9; 8 hours, higher concentrations of lactam 1",Higher levels
same,cell death (trypan blue),NK cells (YT line),9%
same,apoptotic sub-G1 cell population,Jurkat T cells; 2 to 4 hours,2%
same,increase in S phase population,Jurkat T cells; 2 to 4 hours,2-3%
same,increase in S phase population,Jurkat T cells; 6 to 12 hours,up to 13%
same,sub-G1 population,Jurkat T cells; 6 to 12 hours,5-16%
same,increase in S phase population,Jurkat T cells; 5 hours,21%
same,sub-G1 apoptotic population,Jurkat T cells; 5 hours,14%
same,sub-G1 population,Jurkat T cells; 24 h,30%
same,increase in S population,Jurkat T cells; 24 hour,20%
same,nuclear morphology (Hoechst 33342),VA-13 cells,apoptotic nuclear condensation and fragmentation
same,nuclear morphology (Hoechst 33342),WI-38 cells,remained attached with normal nuclei
same,time at which 15-kDa fragment of Bid was first observed,BID,2 h
same,time of peak of 15-kDa fragment of Bid,BID,6 h
